Emax data for four compounds are collected here from ChEMBL document CHEMBL2034901, “Novel 3,6,7-substituted pyrazolopyrimidines as positive allosteric modulators for the hydroxycarboxylic acid receptor 2 (GPR109A)” (J Med Chem, 2012).

For assay [1], the target named is Hydroxycarboxylic acid receptor 2 (Homo sapiens) (UniProt Q8TDS4). Description: Positive allosteric activity at GPR109A in human HEK cells assessed as shift in EC50 of nicotinic acid at 3 uM pretreated for 30 mins measured after 90 mins by [35S]-GTPgammaS binding assay. It is filed as functional, cell-based. The settings on record: HEK293.
Chain of Hydroxycarboxylic acid receptor 2 (Homo sapiens) (Q8TDS4 whole entry): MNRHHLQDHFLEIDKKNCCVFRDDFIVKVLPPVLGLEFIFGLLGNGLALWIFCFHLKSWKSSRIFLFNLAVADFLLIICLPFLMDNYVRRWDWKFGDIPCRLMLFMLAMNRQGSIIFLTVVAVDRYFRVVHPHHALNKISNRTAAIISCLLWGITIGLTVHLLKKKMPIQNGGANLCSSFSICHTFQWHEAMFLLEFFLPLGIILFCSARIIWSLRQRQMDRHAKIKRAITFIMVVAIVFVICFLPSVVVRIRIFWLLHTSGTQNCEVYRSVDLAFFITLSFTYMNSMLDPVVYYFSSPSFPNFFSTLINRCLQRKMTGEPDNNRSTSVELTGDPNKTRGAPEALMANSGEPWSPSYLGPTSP
For assay [2] the target is unchanged. As to the kind of experiment: Positive allosteric activity at GPR109A in human HEK cells assessed as shift in EC50 of nicotinic acid at 1 uM pretreated for 30 mins measured after 90 mins by [35S]-GTPgammaS binding assay. It counts as functional, cell-based. The conditions noted are these: HEK293.

In the case of `Cc1c(C(=O)NCCOc2ccccc2)cnc2c(-c3ccc(Cl)c(Cl)c3)cnn12`, the Emax in assay [1] amounted to 114%. As to `CCc1c(C(=O)NCCOc2ccccc2)cnc2c(-c3ccc(C(C)C)cc3)cnn12`, the figures for the Emax in assay [1] and in assay [2] were 129% and 122%, respectively. With `Cc1c(C(=O)NCCNc2ccccc2)cnc2c(-c3ccc(C(C)C)cc3)cnn12`, the figures for the Emax in assay [1] and in assay [2] were 129% and 120%, respectively. Taken in the same sequence, the figures for `Cc1c(C(=O)NCCOc2ccccc2)cnc2c(-c3ccc(OC(C)C)cc3)cnn12` were 123% and 111%.
